Patent US10183940B2, “Aryl and heteroaryl-fused tetrahydro-1,4-oxazepine amides as somatostatin receptor subtype 4 (SSTR4) agonists” (Boehringer Ingelheim International GmbH, priority 2014, dated 2019)

Assays:
[1] = target: human SSTR2 (Homo sapiens (Human), UniProt P30874); assay: Radioligand binding assay, human SSTR2
Source text: (§1) Radioligand Binding Assays
(§2) Method description for binding assays with human Somatostatin receptors by use of CHO cell membranes expressing recombinant human SSTR1 or human SSTR2 or human SSTR3 or human SSTR4 or human SSTR5
(§3) Receptor binding assays refer to a technique in which labeled receptor ligands are used to detect binding to a receptor. In competition experiments test compounds, which are not labeled, compete with the binding side of a labeled ligand. The displacement of the labeled ligand by the test compound leads to a decreased signal.
(§4) For the binding experiments 200 μL of membrane homogenate from one of the following protein amounts is used: hSSTR1 (40 μg/well); hSSTR2 (25 μg/well); hSSTR3 (1.5 μg/well); hSSTR4 (0.5 μg/well); hSSTR5 (25 μg/well). The homogenate is incubated with 0.05 nM of radioligand ([3-125I-Tyr]-Somatostatin-(1-14)) in addition to increasing concentrations of a test compound or vehicle (100% binding) in a total volume of 250 μL using a Hepes buffer (10 mM, EDTA 1 mM, MgCl2 5 mM, pH7.6, BSA 0.5%, Bacitracin 0.003%, DMSO 1% for 180 min at room temperature. The incubation is terminated by filtration with ice cold NaCl 0.9% through polyethyleneimine treated (0.3%) GF/B glass fiber filters using a cell harvester. The protein-bound radioactivity is measured in a suitable reader. The non-specific binding is defined as radioactivity bound in the presence of 1 μM Somatostatin-14 during the incubation period.
(§5) The analysis of the concentration-binding curves is performed by computer-assisted nonlinear least square curve fitting method using the model of one receptor binding site.

[2] = target: human SSTR3 (Homo sapiens (Human), UniProt P32745); assay: Radioligand binding assay, human SSTR3
human SSTR3, sequence (P32745 whole entry): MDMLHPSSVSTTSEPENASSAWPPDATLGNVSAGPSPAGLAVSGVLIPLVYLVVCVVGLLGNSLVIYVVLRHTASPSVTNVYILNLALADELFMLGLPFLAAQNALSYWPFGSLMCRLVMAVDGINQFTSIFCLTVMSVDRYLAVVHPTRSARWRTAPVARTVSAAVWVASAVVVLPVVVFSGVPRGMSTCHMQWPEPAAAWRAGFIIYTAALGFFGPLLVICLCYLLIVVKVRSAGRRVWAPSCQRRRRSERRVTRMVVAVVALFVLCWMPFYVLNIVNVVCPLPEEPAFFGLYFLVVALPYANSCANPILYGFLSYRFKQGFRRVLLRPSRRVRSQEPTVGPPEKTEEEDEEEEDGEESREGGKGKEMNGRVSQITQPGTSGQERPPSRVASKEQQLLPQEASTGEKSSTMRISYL
Source text: as §1, §2, §3, §4, §5

[3] = target: human SSTR5 (Homo sapiens (Human), UniProt P35346); assay: Radioligand binding assay, human SSTR5
human SSTR5, sequence (P35346 whole entry): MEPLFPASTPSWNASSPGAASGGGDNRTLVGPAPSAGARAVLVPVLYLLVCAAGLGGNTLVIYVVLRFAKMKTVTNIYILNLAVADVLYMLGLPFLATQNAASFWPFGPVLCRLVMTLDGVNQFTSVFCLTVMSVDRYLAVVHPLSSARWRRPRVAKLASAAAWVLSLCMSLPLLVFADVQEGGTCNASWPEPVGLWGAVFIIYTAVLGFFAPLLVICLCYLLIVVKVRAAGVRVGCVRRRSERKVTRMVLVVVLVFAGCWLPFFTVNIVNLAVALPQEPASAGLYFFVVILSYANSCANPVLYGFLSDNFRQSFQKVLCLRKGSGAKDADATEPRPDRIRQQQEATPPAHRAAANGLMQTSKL
Source text: as §1, §2, §3, §4, §5

[4] = target: human SSTR4 (Homo sapiens (Human), UniProt P31391); assay: Radioligand binding assay, human SSTR4
human SSTR4, sequence (P31391 whole entry): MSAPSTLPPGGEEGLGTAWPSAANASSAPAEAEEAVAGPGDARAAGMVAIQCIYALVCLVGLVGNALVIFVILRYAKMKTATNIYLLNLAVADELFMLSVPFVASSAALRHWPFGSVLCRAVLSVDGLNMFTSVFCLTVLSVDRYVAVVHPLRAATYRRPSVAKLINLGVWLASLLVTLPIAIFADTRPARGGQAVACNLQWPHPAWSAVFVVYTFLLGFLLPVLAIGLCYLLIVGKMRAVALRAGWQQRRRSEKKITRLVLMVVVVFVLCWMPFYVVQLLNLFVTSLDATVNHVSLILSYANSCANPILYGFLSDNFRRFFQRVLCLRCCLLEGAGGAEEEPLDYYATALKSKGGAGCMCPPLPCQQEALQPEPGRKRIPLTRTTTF
Source text: as §1, §2, §3, §4, §5

[5] = target: human SSTR1 (Homo sapiens (Human), UniProt P30872); assay: Radioligand binding assay, human SSTR1
human SSTR1, sequence (P30872 whole entry): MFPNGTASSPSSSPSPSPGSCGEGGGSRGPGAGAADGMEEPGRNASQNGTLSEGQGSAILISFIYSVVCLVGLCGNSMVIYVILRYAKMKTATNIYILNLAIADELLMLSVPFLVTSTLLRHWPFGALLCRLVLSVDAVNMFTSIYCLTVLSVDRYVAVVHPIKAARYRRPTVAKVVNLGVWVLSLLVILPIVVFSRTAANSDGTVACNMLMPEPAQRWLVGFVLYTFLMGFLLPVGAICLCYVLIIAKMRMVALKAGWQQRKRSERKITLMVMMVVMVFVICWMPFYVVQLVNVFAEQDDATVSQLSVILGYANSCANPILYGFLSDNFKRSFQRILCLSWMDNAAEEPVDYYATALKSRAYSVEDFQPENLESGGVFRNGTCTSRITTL
Source text: as §1, §2, §3, §4, §5

[6] = Metabolic stability in human liver microsomes; type: in vitro ADME; conditions: pooled human liver microsomes, 37° C., 1 μM test compound, NADPH; for half-life at 1 μM: pH 7.6, read-out: Half-life t1/2
Protocol: The metabolic stability of the compounds according to the invention may be investigated as follows:
The metabolic degradation of the test compound is assayed at 37° C. with pooled human liver microsomes. The final incubation volume of 100 μl per time point contains TRIS buffer pH 7.6 at room temperature (0.1 M), magnesium chloride (5 mM), microsomal protein (1 mg/mL) and the test compound at a final concentration of 1 μM. Following a short preincubation period at 37° C., the reactions are initiated by addition of beta-nicotinamide adenine dinucleotide phosphate, reduced form (NADPH, 1 mM), and terminated by transferring an aliquot into solvent after different time points. After centrifugation (10000 g, 5 min), an aliquot of the supernatant is assayed by LC-MS/MS for the amount of parent compound. The half-life is determined by the slope of the semi-logarithmic plot of the concentration-time profile.

[7] = target: human Somatostatin 4 receptor (SSTR4) (Homo sapiens (Human), UniProt P31391); assay: cAMP assay with human Somatostatin 4 receptor; type: cell-based; conditions: hSSTR4 expressing H4 cells, inhibition of Forskolin-stimulated cAMP; read-out: SSTR4 agonism EC50
human Somatostatin 4 receptor (SSTR4), sequence (P31391 whole entry): as the sequence (P31391 whole entry) above
Protocol: Method description for cAMP assay with human Somatostatin 4 receptor.
The activation of the SSTR4 receptor (Gi coupled) causes an inhibition of intracellular cAMP after stimulation with Forskolin, which can be quantifiable by use of a suitable assay Kit and an adequate plate reader. This technique is used to characterize pharmacological effects of the SSTR4 receptor agonists by use of hSSTR4 expressing H4 cells.
Compounds are dissolved and diluted in DMSO. The final test solution contains […]. The cAMP standard (Lance cAMP 384 Kit; PerkinElmer, Cat #AD0264) is prepared in assay buffer (HBSS with 0.1% BSA, 5 mM HEPES, […], pH 7.4) containing 1% DMSO and the cAMP standard curve is included at least on one plate. Cells are centrifuged and suspended in assay buffer (incl. 1:100 diluted Alexa antibody).
For the assay 5 μl of a cell suspension (approximately 5000 cells/well)—incl. Alexa antibody (diluted 1:100) are added into a 384 well MTP microtitre plate excepting one row or column (depending on the plate layout), which is reserved for the standard curve. Then 2 μl of compound sample is added as concentration response curve (e.g. 1e-5 M to 6e-10 M), usually in triplicates. Each assay contains incubations with vehicle controls instead of compound as controls for non-inhibited cAMP generation (100% CTL; ‘high values’) and incubations with 1 μM Somatosatin as controls for full inhibition and background (0% CTL; ‘low values’). After approximately 10-15 min incubation time 3 μl Forskolin (dissolved in DMSO, final conc. 15 μM) is added. Then the plates are shaken briefly and incubated for 60 min at room temperature. After 60 min 10 μl of the detection mix is added into all wells followed by an additional incubation period of 1 h. The plates are read in a suitable plate reader.
The analysis of the data is based on the “ratio” of the time-resolved fluorescence measurements of donor and acceptor fluorophore (Ex: 320 nm; Em1: 665 nm; Em2: 615 nm; ratio 665/615). From this ratio, cAMP concentrations are calculated from standard curve and the EC50 is estimated by least square curve fit program.

human SSTR2, sequence (P30874 whole entry): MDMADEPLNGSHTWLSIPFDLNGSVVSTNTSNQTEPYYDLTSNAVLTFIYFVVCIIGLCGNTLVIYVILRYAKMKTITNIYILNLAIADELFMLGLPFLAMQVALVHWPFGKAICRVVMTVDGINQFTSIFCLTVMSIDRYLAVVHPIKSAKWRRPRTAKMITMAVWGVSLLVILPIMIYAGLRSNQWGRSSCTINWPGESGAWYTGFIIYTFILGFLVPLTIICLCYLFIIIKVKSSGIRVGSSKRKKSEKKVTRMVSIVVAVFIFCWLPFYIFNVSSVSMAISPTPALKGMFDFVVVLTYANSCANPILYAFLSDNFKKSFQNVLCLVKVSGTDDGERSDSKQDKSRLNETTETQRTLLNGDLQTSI

Q: What does the source list for `Cc1cccc2c(C(C)(C)NC(=O)c3cccc4c3OCCNC4)n[nH]c12` [Example 33]?
A: Ki [1]: 9.6 µM; Ki [2]: 8.62 µM; Ki [3]: 9.75 µM; Ki [4]: 0.0217 µM; Ki [5]: 9.45 µM; half-life at 1 μM [6]: 1.65 h; EC50 [7]: 0.0008 µM

Q: With `Cn1nc(C(C)(C)NC(=O)c2cccc3c2OCCNC3)c2ccccc21` [Example 18] as the compound, how does the Ki [1] read?
A: 9.63 µM

Q: What about the Ki [2] of the same compound?
A: 8.71 µM

Q: What about the Ki [3] of the same compound?
A: 9.86 µM

Q: What about the Ki [4] of the same compound?
A: 0.0395 µM

Q: And the Ki [5]?
A: 7.82 µM

Q: What about the half-life at 1 μM [6] of the same compound?
A: 1.22 h

Q: What about the EC50 [7] of the same compound?
A: 0.0044 µM

Q: With `CC(C)(NC(=O)c1cccc2c1OCCNC2)c1ccnc2ccccc12` [Example 6] as the compound, how does the Ki [1] read?
A: 9.63 µM

Q: And the Ki [2]?
A: 8.71 µM

Q: What about the Ki [3] of the same compound?
A: 9.86 µM

Q: What about the Ki [4] of the same compound?
A: 0.104 µM

Q: And the Ki [5]?
A: 9.01 µM

Q: What about the “Half-life t1/2” value [6] of the same compound?
A: 2.17 h

Q: And the EC50 [7]?
A: 0.0084 µM

Q: For `Cn1nc(C(C)(C)NC(=O)c2cccc3c2OCCNC3)c2cccc(F)c21` [Example 39], which Ki [1] is on record?
A: 9.63 µM

Q: What about the Ki [2] of the same compound?
A: 8.71 µM

Q: What about the Ki [3] of the same compound?
A: 9.86 µM

Q: What about the Ki [4] of the same compound?
A: 0.0291 µM

Q: And the Ki [5]?
A: 9.01 µM

Q: What about the half-life at 1 μM [6] of the same compound?
A: 0.85 h

Q: And the EC50 [7]?
A: 0.0021 µM

Q: What does the source list for `Cc1cccn2c(C(C)(C)NC(=O)c3cccc4c3OCCNC4)ncc12` [Example 47]?
A: Ki [1]: 9.63 µM; Ki [2]: 8.71 µM; Ki [3]: 9.86 µM; Ki [4]: 0.0532 µM; Ki [5]: 9.01 µM; half-life at 1 μM [6]: > 2.17 h; EC50 [7]: 0.002 µM

Q: For `Cn1nc(C(C)(C)NC(=O)c2ccnc3c2OCCNC3)c2ccccc21` [Example 20], which Ki [1] is on record?
A: 9.6 µM

Q: And the Ki [2]?
A: 8.62 µM

Q: What about the Ki [3] of the same compound?
A: 9.75 µM

Q: What about the Ki [4] of the same compound?
A: 0.574 µM

Q: And the Ki [5]?
A: 9.45 µM

Q: And the half-life at 1 μM [6]?
A: > 2.17 h

Q: What about the EC50 [7] of the same compound?
A: 0.0175 µM

Q: With `Cc1cccc2c(C(C)(C)NC(=O)c3cncc4c3OCCNC4)nn(C)c12` [Example 42] as the compound, how does the Ki [1] read?
A: 9.6 µM

Q: What about the Ki [2] of the same compound?
A: 8.62 µM

Q: And the Ki [3]?
A: 9.75 µM

Q: What about the Ki [4] of the same compound?
A: 0.532 µM

Q: And the Ki [5]?
A: 9.45 µM

Q: What about the half-life at 1 μM [6] of the same compound?
A: > 2.17 h

Q: And the EC50 [7]?
A: 0.0158 µM

Q: With `Cc1nnc(C(C)(C)NC(=O)c2cccc3c2OCCNC3)c2ccccc12` [Example 26] as the compound, how does the Ki [1] read?
A: 9.6 µM

Q: What about the Ki [2] of the same compound?
A: 8.62 µM

Q: And the Ki [3]?
A: 9.75 µM

Q: And the Ki [4]?
A: 0.065 µM

Q: What about the Ki [5] of the same compound?
A: 9.45 µM

Q: And the half-life at 1 μM [6]?
A: > 2.17 h

Q: And the EC50 [7]?
A: 0.0025 µM

Q: For `CC(C)(NC(=O)c1cccc2c1OCCNC2)c1n[nH]c2c(F)cccc12` [Example 43], which half-life at 1 μM [6] is on record?
A: 1.45 h

Q: What about the EC50 [7] of the same compound?
A: 0.0022 µM

Q: With `Cc1cccc2c(C(C)(C)NC(=O)c3cccc4c3OCCNC4)nn(C)c12` [Example 40] as the compound, how does the half-life at 1 μM [6] read?
A: 0.517 h

Q: What about the EC50 [7] of the same compound?
A: 0.0022 µM

Q: With `COc1cccn2c(C(C)(C)NC(=O)c3cccc4c3OCCNC4)ncc12` [Example 51] as the compound, how does the “Half-life t1/2” value [6] read?
A: 2.17 h

Q: What about the EC50 [7] of the same compound?
A: 0.0043 µM

Q: For `Cc1cccn2c(C(C)(C)NC(=O)c3nccc4c3OCCNC4)ncc12` [Example 72], which half-life at 1 μM [6] is on record?
A: > 2.17 h

Q: And the EC50 [7]?
A: 0.0136 µM

Q: With `Cc1cc2ccccc2c(C(C)(C)NC(=O)c2nccc3c2OCCNC3)n1` [Example 29] as the compound, how does the half-life at 1 μM [6] read?
A: 0.45 h

Q: What about the EC50 [7] of the same compound?
A: 0.0199 µM

Q: With `CC(C)(NC(=O)c1cccc2c1OCCNC2)c1nc(C2CC2)c2c(F)cccn12` [Example 61] as the compound, how does the half-life at 1 μM [6] read?
A: 0.75 h

Q: And the EC50 [7]?
A: 0.0063 µM

Q: What does the source list for `Cn1nc(C(C)(C)NC(=O)c2nccc3c2OCCNC3)c2ccccc21` [Example 19]?
A: Ki [1]: 9.6 µM; Ki [2]: 8.62 µM; Ki [3]: 9.75 µM; Ki [4]: 0.613 µM; Ki [5]: 9.45 µM; Half-life t1/2 [6]: 2.17 h; EC50 [7]: 0.0146 µM
